Structures can show the parent of a compound that is named as a salt.
What follows are compounds tested against T1, proton pump (H+/K+-ATPase) (Sus scrofa, UniProt P19156) (assay: Measurement of inhibitory effects on proton pump (H+/K+-ATPase) activities). Details: hog gastric vesicles, K+-specific H+/K+-ATPase activity, Tris-HCl buffer pH 7.4, 37° C. for 40 minutes, malachite green Pi readout.
T1 construct: Gastric vesicles were prepared from hog stomach via centrifugal separation; from tissue; host or cells: hog stomach (gastric vesicles, method of Rabon et al. 1988)
T1 sequence (P19156 whole entry): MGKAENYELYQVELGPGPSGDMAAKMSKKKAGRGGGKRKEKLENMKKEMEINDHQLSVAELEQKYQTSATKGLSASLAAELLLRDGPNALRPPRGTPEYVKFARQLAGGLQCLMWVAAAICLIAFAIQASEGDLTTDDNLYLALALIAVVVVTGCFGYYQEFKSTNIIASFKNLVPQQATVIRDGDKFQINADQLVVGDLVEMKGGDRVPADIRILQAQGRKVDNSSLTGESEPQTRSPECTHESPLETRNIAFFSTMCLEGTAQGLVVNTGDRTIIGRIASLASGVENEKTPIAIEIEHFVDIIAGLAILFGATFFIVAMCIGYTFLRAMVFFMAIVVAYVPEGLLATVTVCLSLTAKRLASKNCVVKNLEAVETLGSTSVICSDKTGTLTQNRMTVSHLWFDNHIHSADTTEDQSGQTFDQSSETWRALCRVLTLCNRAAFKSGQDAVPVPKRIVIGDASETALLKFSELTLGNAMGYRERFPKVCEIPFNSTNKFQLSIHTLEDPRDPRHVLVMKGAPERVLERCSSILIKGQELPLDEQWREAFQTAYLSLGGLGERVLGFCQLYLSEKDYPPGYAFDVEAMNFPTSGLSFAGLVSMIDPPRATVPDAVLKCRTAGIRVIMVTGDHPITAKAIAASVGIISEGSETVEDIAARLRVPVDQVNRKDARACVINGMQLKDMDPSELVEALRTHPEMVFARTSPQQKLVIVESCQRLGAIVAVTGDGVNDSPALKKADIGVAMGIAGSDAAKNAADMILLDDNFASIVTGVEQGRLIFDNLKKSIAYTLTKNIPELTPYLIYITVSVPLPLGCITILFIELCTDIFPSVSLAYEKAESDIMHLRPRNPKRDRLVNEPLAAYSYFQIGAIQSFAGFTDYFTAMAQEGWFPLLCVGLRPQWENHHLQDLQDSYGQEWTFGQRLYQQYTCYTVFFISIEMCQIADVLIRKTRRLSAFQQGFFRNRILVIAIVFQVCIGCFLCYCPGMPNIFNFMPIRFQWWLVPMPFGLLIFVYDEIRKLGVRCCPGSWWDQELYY
T1 sequence (P18434 whole entry partner): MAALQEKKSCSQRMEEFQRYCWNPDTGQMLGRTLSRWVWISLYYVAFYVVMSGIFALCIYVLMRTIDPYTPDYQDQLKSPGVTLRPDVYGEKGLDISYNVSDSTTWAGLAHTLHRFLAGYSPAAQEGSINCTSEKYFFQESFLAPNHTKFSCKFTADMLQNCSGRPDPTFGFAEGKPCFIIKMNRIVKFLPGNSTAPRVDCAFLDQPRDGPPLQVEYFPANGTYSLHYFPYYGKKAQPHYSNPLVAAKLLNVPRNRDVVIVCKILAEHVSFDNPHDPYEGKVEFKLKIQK
Format: biochemical
Protocol: 1) Preparation of Gastric Vesicles
Gastric vesicles were prepared from hog stomach via centrifugal separation (Edd C. Rabon et al., Preparation of Gastric H^+,K^+-ATPase, Methods in enzymology, vol. 157 Academic Press Inc., (1988), pp. 649-654). The protein contents of the thus prepared gastric vesicles were quantitated by Bicinchoninic Acid (BCA) kit.
2) Measurement of Inhibitory Effects on Proton Pump (H^+/K^+-ATPase) Activities
The inhibitory effects of the compounds of the present invention against proton pump activities were measured using a 96-well plate. In this assay, the K^+-specific H^+/K^+-ATPase activities were calculated based on the difference between the H^+/K^+-ATPase activity in the presence of K^+ and that in the absence of K. In the 96-well plate, 0.5% dimethyl sulfoxide (DMSO) in buffer was added to the negative and positive control groups, and the diluted compounds of the present invention were added to the test groups. All assays were performed in a reaction volume of 100 μl at room temperature. The reaction buffer solution (60 mmol/l Tris-HCl buffer, pH 7.4) including the hog gastric vesicles was added with DMSO and the compounds at various concentrations, and then further added with 10 μl of 10 mmol/1 adenosine triphosphate Tris buffer solution (60 mmol/l Tris-HCl buffer, pH 7.4) to initiate an enzyme reaction. […] The amount of monophosphate (Pi) in the reaction was measured at 570 nm using a micro plate reader (FLUOstar Omega, BMG LABTECH). The inhibition rates (%) were determined from the activity values of control groups and those of test compounds at various concentrations, and the […] of the test compounds were calculated based on the respective inhibition value (%) using the Logistic 4-parameter function of Sigmaplot 8.0 program.
`CNCc1cn(S(=O)(=O)c2cccnc2)c2cc(Nc3ccc(C(F)(F)F)cc3C)ccc12` [Example 32, N-(2-methyl-4-(trifluoromethyl)phenyl)-3-((methylamino)methyl)-1-(pyridin-3-ylsulfonyl)-1H-indol-6-amine hydrochloride] showed an IC50 of 810 nM. Compound `CNCc1cn(S(=O)(=O)c2cccnc2)c2cc(Nc3ccc(C(F)(F)F)cc3F)ccc12` [Example 33, N-(2-fluoro-4-(trifluoromethyl)phenyl)-3-((methylamino)methyl)-1-(pyridin-3-ylsulfonyl)-1H-indol-6-amine hydrochloride] has an IC50 of 1360 nM. In the case of `CNCc1cn(S(=O)(=O)c2cccnc2)c2cc(Nc3ccc(C(F)(F)F)cc3C(F)(F)F)ccc12` [Example 35, N-(2,4-Bis(trifluoromethyl)phenyl)-3-((methylamino)methyl)-1-(pyridin-3-ylsulfonyl)-1H-indol-6-amine hydrochloride], the IC50 is reported as 1630 nM. With `CNCc1cn(S(=O)(=O)c2cccnc2)c2cc(Nc3ccc(C#N)cc3C)ccc12` [Example 36, 3-methyl-4-((3-((methylamino)methyl)-1-(pyridin-3-ylsulfonyl)-1H-indol-6-yl)amino)benzonitrile hydrochloride] the IC50 was 340 nM. Work on `CCc1cc(C#N)ccc1Nc1ccc2c(CNC)cn(S(=O)(=O)c3cccnc3)c2c1` [Example 37, 3-ethyl-4-((3-((methylamino)methyl)-1-(pyridin-3-ylsulfonyl)-1H-indol-6-yl)amino)benzonitrile hydrochloride] yielded an IC50 of 500 nM. With `CNCc1cn(S(=O)(=O)c2cccnc2)c2cc(Nc3ccc(C#N)cc3F)ccc12` [Example 38, 3-fluoro-4-((3-((methylamino)methyl)-1-(pyridin-3-ylsulfonyl)-1H-indol-6-yl)amino)benzonitrile hydrochloride] the IC50 was 2190 nM. With `CNCc1cn(S(=O)(=O)c2cccnc2)c2cc(Nc3ccc(C#N)cc3Cl)ccc12` [Example 39, 3-chloro-4-((3-((methylamino)methyl)-1-(pyridin-3-ylsulfonyl)-1H-indol-6-yl)amino)benzonitrile hydrochloride] the IC50 was 130 nM. In the case of `CNCc1cn(S(=O)(=O)c2cccnc2)c2cc(Nc3ccc(C#N)cc3C(F)(F)F)ccc12` [Example 40, 4-((3-((methylamino)methyl)-1-(pyridin-3-ylsulfonyl)-1H-indol-6-yl)amino)-3-(trifluoromethyl)benzonitrile hydrochloride], the IC50 is reported as 1830 nM. `CNCc1cn(S(=O)(=O)c2cccnc2)c2cc(Nc3ccc([N+](=O)[O-])cc3Cl)ccc12` [Example 41, N-(2-chloro-4-nitrophenyl)-3-((methylamino)methyl)-1-(pyridin-3-ylsulfonyl)-1H-indol-6-amine hydrochloride] showed an IC50 of 480 nM. In the case of `CNCc1cn(S(=O)(=O)c2cccnc2)c2cc(Nc3ccc([N+](=O)[O-])cc3C)ccc12` [Example 42, N-(2-methyl-4-nitrophenyl)-3-((methylamino)methyl)-1-(pyridin-3-ylsulfonyl)-1H-indol-6-amine hydrochloride], the IC50 is reported as 340 nM. Work on `CCc1cc(Br)ccc1Nc1ccc2c(CNC)cn(S(=O)(=O)c3cccnc3)c2c1` [Example 43, N-(4-bromo-2-ethylphenyl)-3-((methylamino)methyl)-1-(pyridin-3-ylsulfonyl)-1H-indol-6-amine hydrochloride] yielded an IC50 of 3020 nM. In the case of `CNCc1cn(S(=O)(=O)c2cccnc2)c2cc(Nc3ccc(Br)cc3Cl)ccc12` [Example 44, N-(4-bromo-2-chlorophenyl)-3-((methylamino)methyl)-1-(pyridin-3-ylsulfonyl)-1H-indol-6-amine hydrochloride], the IC50 is reported as 270 nM. `CNCc1cn(S(=O)(=O)c2cccnc2)c2cc(Nc3ccc(Br)cc3C(F)(F)F)ccc12` [Example 45, N-(4-bromo-2-(trifluoromethyl)phenyl)-3-((methylamino)methyl)-1-(pyridin-3-ylsulfonyl)-1H-indol-6-amine hydrochloride] showed an IC50 of 1200 nM. `CNCc1cn(S(=O)(=O)c2cccnc2)c2cc(Nc3ccc(Br)cc3OC(F)(F)F)ccc12` [Example 46, N-(4-bromo-2-(trifluoromethoxy)phenyl)-3-((methylamino)methyl)-1-(pyridin-3-ylsulfonyl)-1H-indol-6-amine hydrochloride] was tested, and the IC50 was 2350 nM. `CNCc1cn(S(=O)(=O)c2cccnc2)c2cc(Nc3ccc(O)cc3C)ccc12` [Example 47, 3-methyl-4-((3-((methylamino)methyl)-1-(pyridin-3-ylsulfonyl)-1H-indol-6-yl)amino)phenol hydrochloride] showed an IC50 of 840 nM. `CNCc1cn(S(=O)(=O)c2cccnc2)c2cc(Nc3ccc(OC)cc3C)ccc12` [Example 48, N-(4-methoxy-2-methylphenyl)-3-((methylamino)methyl)-1-(pyridin-3-ylsulfonyl)-1H-indol-6-amine hydrochloride] gave an IC50 of 260 nM. With `CNCc1cn(S(=O)(=O)c2cccnc2)c2cc(Nc3ccc(OC)cc3F)ccc12` [Example 49, N-(2-fluoro-4-methoxyphenyl)-3-((methylamino)methyl)-1-(pyridin-3-ylsulfonyl)-1H-indol-6-amine hydrochloride] the IC50 was 320 nM. With `CNCc1cn(S(=O)(=O)c2cccnc2)c2cc(Nc3ccc(OC)cc3C(F)(F)F)ccc12` [Example 51, N-(4-methoxy-2-(trifluoromethyl)phenyl)-3-((methylamino)methyl)-1-(pyridin-3-ylsulfonyl)-1H-indol-6-amine hydrochloride] the IC50 was 1200 nM. `CNCc1cn(S(=O)(=O)c2cccnc2)c2cc(Nc3ccc(OC(F)(F)F)cc3F)ccc12` [Example 54, N-(2-fluoro-4-(trifluoromethoxy)phenyl)-3-((methylamino)methyl)-1-(pyridin-3-ylsulfonyl)-1H-indol-6-amine hydrochloride] showed an IC50 of 1050 nM. `CNCc1cn(S(=O)(=O)c2cccnc2)c2cc(Nc3ccc(C(=O)OC)cc3Cl)ccc12` [Example 57, methyl 3-chloro-4-((3-((methylamino)methyl)-1-(pyridin-3-ylsulfonyl)-1H-indol-6-yl)amino)benzoate hydrochloride] showed an IC50 of 430 nM. For `CNCc1cn(S(=O)(=O)c2cccnc2)c2cc(Nc3cc(F)ccc3F)ccc12` [Example 58, N-(2,5-difluorophenyl)-3-((methylamino)methyl)-1-(pyridin-3-ylsulfonyl)-1H-indol-6-amine hydrochloride], the IC50 was 410 nM. With `CNCc1cn(S(=O)(=O)c2cccnc2)c2cc(Nc3cc(C)ccc3F)ccc12` [Example 59, N-(2-fluoro-5-methylphenyl)-3-((methylamino)methyl)-1-(pyridin-3-ylsulfonyl)-1H-indol-6-amine hydrochloride] the IC50 was 350 nM. `CNCc1cn(S(=O)(=O)c2cccnc2)c2cc(Nc3c(F)cccc3F)ccc12` [Example 60, N-(2,6-difluorophenyl)-3-((methylamino)methyl)-1-(pyridin-3-ylsulfonyl)-1H-indol-6-amine hydrochloride] gave an IC50 of 2460 nM. `CNCc1cn(S(=O)(=O)c2cccnc2)c2cc(Nc3c(C)cccc3Cl)ccc12` [Example 61, N-(2-chloro-6-methylphenyl)-3-((methylamino)methyl)-1-(pyridin-3-ylsulfonyl)-1H-indol-6-amine hydrochloride] showed an IC50 of 290 nM. `CNCc1cn(S(=O)(=O)c2cccnc2)c2cc(Nc3ccc(F)c(F)c3)ccc12` [Example 62, N-(3,4-difluorophenyl)-3-((methylamino)methyl)-1-(pyridin-3-ylsulfonyl)-1H-indol-6-amine hydrochloride] gave an IC50 of 930 nM. Compound `CNCc1cn(S(=O)(=O)c2cccnc2)c2cc(Nc3cc(OC)cc(OC)c3)ccc12` [Example 63, N-(3,5-dimethoxyphenyl)-3-((methylamino)methyl)-1-(pyridin-3-ylsulfonyl)-1H-indol-6-amine hydrochloride] has an IC50 of 1310 nM. In the case of `CNCc1cn(S(=O)(=O)c2cccnc2)c2cc(Nc3cc(Cl)cc(Cl)c3)ccc12` [Example 64, N-(3,5-dichlorophenyl)-3-((methylamino)methyl)-1-(pyridin-3-ylsulfonyl)-1H-indol-6-amine hydrochloride], the IC50 is reported as 1840 nM. In the case of `CNCc1cn(S(=O)(=O)c2cccnc2)c2cc(Nc3ccc(F)c(C)c3C)ccc12` [Example 66, N-(4-fluoro-2,3-dimethylphenyl)-3-((methylamino)methyl)-1-(pyridin-3-ylsulfonyl)-1H-indol-6-amine hydrochloride], the IC50 is reported as 270 nM. `CNCc1cn(S(=O)(=O)c2cccnc2)c2cc(Nc3ccc(F)c(F)c3F)ccc12` [Example 67, 3-((methylamino)methyl)-1-(pyridin-3-ylsulfonyl)-N-(2,3,4-trifluorophenyl)-1H-indol-6-amine hydrochloride] was tested, and the IC50 was 380 nM. With `CNCc1cn(S(=O)(=O)c2cccnc2)c2cc(Nc3ccc(F)c(OC)c3F)ccc12` [Example 68, N-(2,4-difluoro-3-methoxyphenyl)-3-((methylamino)methyl)-1-(pyridin-3-ylsulfonyl)-1H-indol-6-amine hydrochloride] the IC50 was 2390 nM.
